This passage reports inhibition results from ChEMBL document CHEMBL5252509, “In depth analysis of kinase cross screening data to identify chemical starting points for inhibition of the Nek family of kinases” (Medchemcomm, 2018).

Assay [1] addresses T1, Serine/threonine-protein kinase Nek2 (Homo sapiens) (UniProt P51955).
T1 sequence (whole entry): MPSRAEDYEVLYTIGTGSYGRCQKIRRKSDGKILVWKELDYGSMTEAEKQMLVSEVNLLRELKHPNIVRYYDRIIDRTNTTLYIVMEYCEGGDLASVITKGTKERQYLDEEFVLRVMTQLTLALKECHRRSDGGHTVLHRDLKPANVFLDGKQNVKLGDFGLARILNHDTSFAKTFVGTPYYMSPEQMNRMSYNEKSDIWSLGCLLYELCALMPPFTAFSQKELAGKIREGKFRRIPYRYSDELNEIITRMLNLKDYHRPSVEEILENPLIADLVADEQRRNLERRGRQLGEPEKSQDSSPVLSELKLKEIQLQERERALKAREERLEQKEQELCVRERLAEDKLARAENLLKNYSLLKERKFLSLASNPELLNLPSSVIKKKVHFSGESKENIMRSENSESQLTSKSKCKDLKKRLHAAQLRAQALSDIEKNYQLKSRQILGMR
Put plainly: Inhibition of NEK2 (unknown origin) at 1 uM relative to control.

The target in assay [2] is T2, Serine/threonine-protein kinase Nek3 (Homo sapiens) (UniProt P51956).
T2 sequence (whole entry): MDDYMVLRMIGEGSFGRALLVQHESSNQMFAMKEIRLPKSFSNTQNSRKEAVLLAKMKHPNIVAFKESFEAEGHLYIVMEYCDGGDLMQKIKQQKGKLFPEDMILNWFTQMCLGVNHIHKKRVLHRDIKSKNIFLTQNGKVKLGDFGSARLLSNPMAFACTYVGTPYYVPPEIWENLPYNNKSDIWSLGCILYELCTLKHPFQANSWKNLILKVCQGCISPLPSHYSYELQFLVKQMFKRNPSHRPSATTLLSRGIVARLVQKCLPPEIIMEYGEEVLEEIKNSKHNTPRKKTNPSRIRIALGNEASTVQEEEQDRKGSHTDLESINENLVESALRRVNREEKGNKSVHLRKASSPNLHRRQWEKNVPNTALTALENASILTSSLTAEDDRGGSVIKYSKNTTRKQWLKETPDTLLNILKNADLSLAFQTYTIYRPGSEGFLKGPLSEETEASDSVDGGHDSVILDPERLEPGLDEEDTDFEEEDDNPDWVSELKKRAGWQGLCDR
Put plainly: Inhibition of NEK3 (unknown origin) at 1 uM relative to control.

Assay [3] has as its target Serine/threonine-protein kinase Nek6 (Homo sapiens) (UniProt Q9HC98). Put plainly: Inhibition of NEK6 (unknown origin) at 1 uM relative to control.
The target in assay [4] is T3, Serine/threonine-protein kinase Nek9 (Homo sapiens) (UniProt Q8TD19).
T3 sequence (whole entry): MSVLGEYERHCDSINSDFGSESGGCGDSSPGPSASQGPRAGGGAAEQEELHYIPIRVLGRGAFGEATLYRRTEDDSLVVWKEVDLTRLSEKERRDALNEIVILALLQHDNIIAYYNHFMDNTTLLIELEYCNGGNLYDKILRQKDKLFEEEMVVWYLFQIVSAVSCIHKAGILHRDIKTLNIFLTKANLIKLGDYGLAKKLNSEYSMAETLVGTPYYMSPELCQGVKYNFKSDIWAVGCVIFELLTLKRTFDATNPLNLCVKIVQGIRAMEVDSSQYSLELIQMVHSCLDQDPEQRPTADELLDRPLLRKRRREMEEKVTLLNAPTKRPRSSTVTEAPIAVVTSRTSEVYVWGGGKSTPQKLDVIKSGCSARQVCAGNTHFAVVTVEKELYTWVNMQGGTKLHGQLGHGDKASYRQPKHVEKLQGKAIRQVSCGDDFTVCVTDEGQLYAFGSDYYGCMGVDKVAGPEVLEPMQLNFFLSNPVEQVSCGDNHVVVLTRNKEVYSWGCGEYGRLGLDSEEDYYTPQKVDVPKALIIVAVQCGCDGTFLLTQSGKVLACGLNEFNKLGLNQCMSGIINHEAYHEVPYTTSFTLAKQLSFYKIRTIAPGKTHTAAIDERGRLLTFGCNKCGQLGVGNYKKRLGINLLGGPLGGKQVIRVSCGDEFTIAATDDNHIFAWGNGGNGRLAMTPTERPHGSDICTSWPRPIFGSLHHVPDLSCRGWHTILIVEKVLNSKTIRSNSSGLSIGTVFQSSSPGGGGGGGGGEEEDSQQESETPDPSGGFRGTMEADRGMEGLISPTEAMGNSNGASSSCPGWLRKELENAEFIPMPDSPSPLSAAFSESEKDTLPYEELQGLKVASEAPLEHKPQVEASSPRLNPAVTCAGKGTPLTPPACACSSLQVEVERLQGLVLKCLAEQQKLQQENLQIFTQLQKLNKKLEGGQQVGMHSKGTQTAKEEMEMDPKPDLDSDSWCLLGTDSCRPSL
Put plainly: Inhibition of NEK9 (unknown origin) at 1 uM relative to control.

Each structure is given as a SMILES string.

As usually defined, the inhibition is the relative decrease from the control value, in per cent.

Chain of Serine/threonine-protein kinase Nek6 (Homo sapiens) (Q9HC98 whole entry): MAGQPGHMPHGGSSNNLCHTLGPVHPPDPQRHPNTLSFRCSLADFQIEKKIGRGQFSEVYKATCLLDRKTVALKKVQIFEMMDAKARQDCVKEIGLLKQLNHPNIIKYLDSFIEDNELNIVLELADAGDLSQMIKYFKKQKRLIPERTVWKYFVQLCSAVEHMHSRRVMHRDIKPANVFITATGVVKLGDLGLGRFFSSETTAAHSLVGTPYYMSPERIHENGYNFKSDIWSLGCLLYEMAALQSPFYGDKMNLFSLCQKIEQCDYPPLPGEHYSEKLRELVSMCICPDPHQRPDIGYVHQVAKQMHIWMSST

Regarding `COc1cc(Nc2ncc3c(C)nc(-c4cc5ccccc5[nH]4)n3n2)cc(OC)c1OC`, the inhibition in assay [1] stood at 70%; in assay [2], 89%; in assay [3] it was 70%; in assay [4], 70%.
Regarding `Nc1ncc(-c2cccnc2)c2scc(-c3ccc4c(c3)CCN4C(=O)Cc3ccccc3)c12`, the inhibition in assay [1] was determined as 70%; in assay [2], 1%; in assay [3], 8%; in assay [4] it was 28%.
On to `COc1cccc(C2=C(Nc3ccc(Cl)c(C(=O)O)c3)C(=O)NC2=O)c1`, for which the inhibition is 0% in assay [1], 7% in assay [2], 0% in assay [3] and 0% in assay [4].
With `CS(=O)(=O)Nc1ccc(-c2ccnc3[nH]ccc23)cc1`, the inhibition in assay [1] stood at 0%; in assay [2], 4%; in assay [3], 0%; in assay [4], 14%.
`COc1cccc(C2=C(Nc3cccc(Cl)c3)C(=O)NC2=O)c1`: the inhibition is 13% in assay [1], 5% in assay [2], 0% in assay [3] and 1% in assay [4].
As for `Cc1ccccc1CC(=O)N1CCc2cc(-c3cn(C)c4ncnc(N)c34)ccc21`, the inhibition in assay [1] amounted to 97%; in assay [2], 0%; in assay [3], 0%; in assay [4], 0%.
As to `COc1cccc(CC(=O)N2CCc3cc(-c4cn(C)c5ncnc(N)c45)ccc32)c1`, the inhibition turned out to be 74% in assay [1], 4% in assay [2], 18% in assay [3] and 25% in assay [4].
For `Cn1cc(-c2cnc(N)c3c(-c4ccc5c(c4)CCN5C(=O)Cc4ccccc4)csc23)cn1`, the inhibition amounted to 28% in assay [1], 1% in assay [2], 0% in assay [3] and 0% in assay [4].
On to `Cn1cc(-c2ccc3c(c2)CCN3C(=O)Cc2cccc(C(F)(F)F)c2)c2c(N)ncnc21`, for which the inhibition in assay [1] came out at 15%; in assay [2], 0%; in assay [3] it was 0%; in assay [4], 8%.
For `O=S(=O)(c1ccc(-c2ccnc3[nH]ccc23)cc1)N1CCCC1`, the inhibition in assay [1] is 16%; in assay [2] it was 16%; in assay [3] it was 0%; in assay [4], 28%.
Take `CC(C)Oc1ccc2c(-c3ccnc(Nc4ccc(N5CCN(C)CC5)cc4)n3)cnn2n1`: the inhibition in assay [1] is 6.7%; in assay [2] it was 1.5%; in assay [3], 6.3%; in assay [4], 7.1%.
On the same counts, the results for `Cn1cc(-c2ccc3c(c2)CCN3C(=O)Cc2cccc(F)c2)c2c(N)ncnc21` are 73%, 11%, 0% and 0%.
Turning to `Nc1nccc2scc(-c3ccc4c(c3)CCN4C(=O)Cc3ccccc3)c12`, the inhibition in assay [1] stood at 4%; in assay [2] it was 10%; in assay [3], 0%; in assay [4], 18%.
For `Nc1nccc2scc(-c3ccc4c(c3)CCN4C(=O)Cc3cc(F)ccc3F)c12`, the inhibition in assay [1] worked out at 7%; in assay [2] it was 0%; in assay [3] it was 0%; in assay [4], 4%.
Regarding `Nc1ncc(-c2cn[nH]c2)c2scc(-c3ccc4c(c3)CCN4C(=O)Cc3ccccc3)c12`, the inhibition in assay [1] worked out at 85%; in assay [2], 0%; in assay [3] it was 3%; in assay [4], 0%.
On to `NCCNS(=O)(=O)c1ccc(-c2ccnc3[nH]ccc23)cc1`, for which the inhibition in assay [1] turned out to be 0%; in assay [2] it was 14%; in assay [3] it was 4%; in assay [4] it was 22%.
On to `c1ccc(-c2ccnc3[nH]ccc23)cc1`, for which the inhibition in assay [1] amounted to 74%; in assay [2] it was 19%; in assay [3], 0%; in assay [4], 0%.
Consider `Cn1cc(-c2ccc3c(c2)CCN3C(=O)Cc2cc(F)cc(C(F)(F)F)c2)c2c(N)ncnc21`, for which the inhibition in assay [1] is 18%; in assay [2] it was 0%; in assay [3], 6%; in assay [4], 25%.
On the same counts, the results for `O=C1NC(=O)C(c2ccccc2Cl)=C1Nc1cccc(Cl)c1` are 10%, 56%, 1% and 20%.
In the same order, the values of `Cn1cc(-c2ccc3c(c2)CCN3C(=O)Cc2cccc(Cl)c2)c2c(N)ncnc21` are 66%, 1%, 11% and 18%.
Regarding `O=c1[nH]ccc2nc(N[C@@H]3CCCNC3)nc(Nc3ccc(S(=O)(=O)N4CCOCC4)cc3)c12`, the inhibition in assay [1] was 20%; in assay [2] it was 11%; in assay [3], 54%; in assay [4], 86%.
Turning to `CC(C)c1nc(-c2cccc(NS(=O)(=O)c3c(F)cccc3F)c2F)c(-c2ccnc(Nc3ccc(N4CCOCC4)nc3)n2)s1`, the inhibition was 0.9% in assay [1], 99% in assay [2], 0.9% in assay [3] and 6.4% in assay [4].
In the case of `CN(C)CCNS(=O)(=O)c1ccc(-c2ccnc3[nH]ccc23)cc1`, the inhibition was determined as 0% in assay [1], 0% in assay [2], 1% in assay [3] and 0% in assay [4].
Consider `Cn1cc(-c2ccc3c(c2)CCN3C(=O)Cc2ccccc2Cl)c2c(N)ncnc21`, for which the inhibition in assay [1] is 79%; in assay [2], 0%; in assay [3] it was 3%; in assay [4], 33%.
Regarding `COc1ccc(Nc2ncc(C#N)c(Nc3ccccc3C(N)=O)n2)cc1N1CCN(C)CC1`, the inhibition in assay [1] stood at 0.4%; in assay [2] it was 6.5%; in assay [3], 0.1%; in assay [4], 1.8%.
Take `Cn1cc(-c2ccc3c(c2)CCN3C(=O)Cc2cc(F)cc(F)c2F)c2c(N)ncnc21`: the inhibition is 84% in assay [1], 0% in assay [2], 18% in assay [3] and 8% in assay [4].
On to `CC(C)c1nc(-c2cccc(NS(=O)(=O)c3ccccc3)c2)c(-c2ccnc(Nc3ccc4c(c3)CN(C)CC4)n2)s1`, for which the inhibition in assay [1] was 66%; in assay [2], 73%; in assay [3], 100%; in assay [4] it was 49%.
For `Cc1ccc(CC(=O)N2CCc3cc(-c4cn(C)c5ncnc(N)c45)ccc32)cc1`, the inhibition is 96.9% in assay [1], 7% in assay [2], 19% in assay [3] and 20% in assay [4].
In the case of `COc1ccc(C2=C(Nc3cccc(C(=O)O)c3)C(=O)NC2=O)cc1`, the inhibition in assay [1] is 10%; in assay [2], 31%; in assay [3] it was 13%; in assay [4], 2%.
